Results reported in ChEMBL document CHEMBL1909046, “DrugMatrix in vitro pharmacology data”.

Legend:
[1] = biological target: T1, Alpha-1B adrenergic receptor (Rattus norvegicus, UniProt P15823); assay: DRUGMATRIX: Alpha-1B adrenergic receptor radioligand binding (ligand: prazosin); assay type: cell membranes, Wistar, Liver, Membrane; details: Not Active = under 50% inhibition at 10 µM
T1 sequence (P15823 whole entry): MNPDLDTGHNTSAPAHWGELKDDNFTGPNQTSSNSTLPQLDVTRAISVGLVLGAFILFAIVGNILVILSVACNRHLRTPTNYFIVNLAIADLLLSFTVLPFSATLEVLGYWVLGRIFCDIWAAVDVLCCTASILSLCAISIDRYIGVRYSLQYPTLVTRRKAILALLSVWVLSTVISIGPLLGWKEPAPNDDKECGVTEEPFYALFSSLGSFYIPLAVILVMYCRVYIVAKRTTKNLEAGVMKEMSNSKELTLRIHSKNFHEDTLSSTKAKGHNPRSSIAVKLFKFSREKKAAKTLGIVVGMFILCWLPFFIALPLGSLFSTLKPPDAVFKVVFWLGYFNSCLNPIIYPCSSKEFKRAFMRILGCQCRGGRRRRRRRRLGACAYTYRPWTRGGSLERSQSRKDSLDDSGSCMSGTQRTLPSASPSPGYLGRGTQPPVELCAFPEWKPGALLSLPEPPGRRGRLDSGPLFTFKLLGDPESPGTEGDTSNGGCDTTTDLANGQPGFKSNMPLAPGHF

[2] = biological target: Aldo-keto reductase family 1 member B1 (Rattus norvegicus, UniProt P07943); assay: biochemical; assay type: tissue-based, Lens of camera-type eye;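 further: inhibition of aldose reductase enzyme activity, measured with DL-glyceraldehyde as the substrate; in other assays of this panel Not Active means under 50% inhibition at 10 µM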
[3] = DRUGMATRIX: Calcium Channel Type L, Benzothiazepine radioligand binding (ligand: [3H] Diltiazem); assay type: cell membranes, Rattus norvegicus, Wistar, Brain, Membrane; details: Not Active = under 50% inhibition at 10 µM
[4] = biological target: C-C chemokine receptor type 2 (Homo sapiens, UniProt P41597); assay type: cell membranes, CHO-K1, Membrane; details: cho-k1; further: in other assays of this panel Not Active means under 50% inhibition at 10 µM
Chain of C-C chemokine receptor type 2 (P41597 whole entry): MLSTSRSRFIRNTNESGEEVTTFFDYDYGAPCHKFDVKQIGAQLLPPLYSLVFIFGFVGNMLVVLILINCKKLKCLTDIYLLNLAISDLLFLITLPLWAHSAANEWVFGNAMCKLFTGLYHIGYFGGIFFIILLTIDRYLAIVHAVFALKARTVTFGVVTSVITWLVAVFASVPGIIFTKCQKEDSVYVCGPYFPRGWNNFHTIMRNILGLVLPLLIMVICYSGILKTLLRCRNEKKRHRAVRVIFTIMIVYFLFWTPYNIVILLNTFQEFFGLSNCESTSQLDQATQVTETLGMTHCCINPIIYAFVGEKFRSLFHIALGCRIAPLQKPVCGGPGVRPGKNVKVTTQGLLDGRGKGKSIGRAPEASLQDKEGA

Histamine H2 receptor = Histamine H2 receptor (Homo sapiens, UniProt P25021); assay type: cell membranes, CHO-K1, Membrane; details: cho-k1; further: in other assays of this panel Not Active means under 50% inhibition at 10 µM
Chain of Histamine H2 receptor (P25021 whole entry): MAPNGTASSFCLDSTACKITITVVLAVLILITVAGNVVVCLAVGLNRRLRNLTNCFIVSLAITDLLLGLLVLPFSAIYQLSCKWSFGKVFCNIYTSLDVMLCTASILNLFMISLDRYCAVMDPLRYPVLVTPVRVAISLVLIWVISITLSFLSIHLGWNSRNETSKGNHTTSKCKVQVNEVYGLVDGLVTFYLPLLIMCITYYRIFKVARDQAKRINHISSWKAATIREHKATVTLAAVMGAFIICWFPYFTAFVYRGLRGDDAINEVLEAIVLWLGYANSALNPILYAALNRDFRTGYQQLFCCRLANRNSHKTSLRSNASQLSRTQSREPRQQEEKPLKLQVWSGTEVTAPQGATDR

[5] = DRUGMATRIX: Phorbol Ester radioligand binding (ligand: [3H] PDBu); assay type: cell membranes, Mus musculus, ICR, Brain, Membrane; details: Not Active = under 50% inhibition at 10 µM

Row | SMILES | IC50 [1] | IC50 [2] | IC50 [3] | Ki [3] | IC50 [4] | IC50 (Histamine H2 receptor) | IC50 [5] | Ki [5] | IC50 ([3]; read-out: IC50) | Ki ([3]; read-out: Ki) | Ki [1] | Ki [2] | Ki [4] | Ki (Histamine H2 receptor) | IC50 ([2]; read-out: IC50)
1 | CC(C)CN(C[C@@H](O)[C@H](Cc1ccccc1)NC(=O)O[C@H]1CCOC1)S(=O)(=O)c1ccc(N)cc1 | Not Active | Not Active | Not Active | Not Active | Not Active | Not Active | Not Active | Not Active | – | – | – | – | – | – | –
2 | c1ccc(Nc2ccc(Nc3ccccc3)cc2)cc1 | Not Active | Not Active | Not Active | Not Active | Not Active | Not Active | Not Active | Not Active | – | – | – | – | – | – | –
3 | COc1cc2c3cc1Oc1cc(ccc1O)C[C@@H]1c4c(cc(OC)c(O)c4Oc4ccc(cc4)C[C@@H]3N(C)CC2)CC[N+]1(C)C.[Cl-] | Not Active | Not Active | Not Active | Not Active | Not Active | Not Active | Not Active | Not Active | – | – | – | – | – | – | –
4 | NC(=O)N1c2ccccc2CCc2ccccc21 | Not Active | Not Active | Not Active | Not Active | Not Active | Not Active | Not Active | Not Active | – | – | – | – | – | – | –
5 | O=C1CC[C@@H](N2C(=O)c3ccccc3C2=O)C(=O)N1 | Not Active | Not Active | Not Active | Not Active | Not Active | Not Active | Not Active | Not Active | – | – | – | – | – | – | –
6 | Cc1onc(O)c1CC(N)C(=O)O (racemic) [(R,S)-AMPA] | Not Active | Not Active | Not Active | Not Active | Not Active | Not Active | Not Active | Not Active | – | – | – | – | – | – | –
7 | Cc1ccc2cc3c(ccc4ccccc43)c3c2c1CC3 [3-METHYLCHOLANTHRENE] | Not Active | Not Active | Not Active | Not Active | Not Active | Not Active | Not Active | Not Active | – | – | – | – | – | – | –
8 | CC[C@@]1(O)C[C@H](O[C@H]2C[C@H](N(C)C)[C@H](O[C@H]3C[C@H](O)[C@H](O[C@H]4CCC(=O)[C@H](C)O4)[C@H](C)O3)[C@H](C)O2)c2c(cc3c(c2O)C(=O)c2c(O)cccc2C3=O)[C@H]1C(=O)OC [ACLARUBICIN] | Not Active | Not Active | Not Active | Not Active | Not Active | Not Active | Not Active | Not Active | – | – | – | – | – | – | –
9 | Nc1nc2c(ncn2COCCO)c(=O)[nH]1 [ACYCLOVIR] | Not Active | Not Active | Not Active | Not Active | Not Active | Not Active | Not Active | Not Active | – | – | – | – | – | – | –
10 | Cc1c(C)c2c(c(C)c1O)CC[C@@](C)(CCC[C@H](C)CCC[C@H](C)CCCC(C)C)O2 [ALPHA-TOCOPHEROL] | Not Active | Not Active | Not Active | Not Active | Not Active | Not Active | Not Active | Not Active | – | – | – | – | – | – | –
11 | CN(C)c1nc(N(C)C)nc(N(C)C)n1 [ALTRETAMINE] | Not Active | Not Active | Not Active | Not Active | Not Active | Not Active | Not Active | Not Active | – | – | – | – | – | – | –
12 | Nc1c(Br)cc(Br)cc1CN[C@H]1CC[C@H](O)CC1 [AMBROXOL] | Not Active | Not Active | Not Active | Not Active | Not Active | Not Active | Not Active | Not Active | – | – | – | – | – | – | –
13 | NCCCCCC(=O)O [AMINOCAPROIC ACID] | Not Active | Not Active | Not Active | Not Active | Not Active | Not Active | Not Active | Not Active | – | – | – | – | – | – | –
14 | CCC1(c2ccc(N)cc2)CCC(=O)NC1=O (stereo not given) [AMINOGLUTETHIMIDE] | Not Active | Not Active | Not Active | Not Active | Not Active | Not Active | Not Active | Not Active | – | – | – | – | – | – | –
15 | Cc1ccc(/N=C/N(C)/C=N/c2ccc(C)cc2C)c(C)c1 [AMITRAZ] | Not Active | Not Active | Not Active | Not Active | Not Active | Not Active | Not Active | Not Active | – | – | – | – | – | – | –
16 | CCOC(=O)C1=C(COCCN)NC(C)=C(C(=O)OC)C1c1ccccc1Cl (stereo not given) [AMLODIPINE] | Not Active | Not Active | – | – | Not Active | Not Active | Not Active | Not Active | 101 nM | 90 nM | – | – | – | – | –

Row | SMILES | IC50 [1] | IC50 [2] | IC50 [3] | Ki [3] | IC50 [4] | IC50 (Histamine H2 receptor) | IC50 [5] | Ki [5] | IC50 ([3]; read-out: IC50) | Ki ([3]; read-out: Ki) | Ki [1] | Ki [2] | Ki [4] | Ki (Histamine H2 receptor) | IC50 ([2]; read-out: IC50)
17 | COc1ccc(C[C@H]2NC[C@H](O)[C@H]2OC(C)=O)cc1 [ANISOMYCIN] | Not Active | Not Active | Not Active | Not Active | Not Active | Not Active | Not Active | Not Active | – | – | Not Active | Not Active | Not Active | Not Active | –
18 | Nc1ncn([C@@H]2O[C@H](CO)[C@@H](O)[C@H]2O)c(=O)n1 [AZACITIDINE] | Not Active | Not Active | Not Active | Not Active | Not Active | Not Active | Not Active | Not Active | – | – | – | – | – | – | –
19 | CN(C)C(=O)Oc1cc(OC(=O)N(C)C)cc(C(O)CNC(C)(C)C)c1 (stereo not given) [BAMBUTEROL] | Not Active | Not Active | Not Active | Not Active | Not Active | Not Active | Not Active | Not Active | – | – | – | – | – | – | –
20 | c1ccc2c(c1)c1cccc3ccc4cccc2c4c31 [BENZO[E]PYRENE] | Not Active | Not Active | Not Active | Not Active | Not Active | Not Active | Not Active | Not Active | – | – | – | – | – | – | –
21 | CNCCc1ccccn1 [BETAHISTINE] | Not Active | Not Active | Not Active | Not Active | Not Active | Not Active | Not Active | Not Active | – | – | – | – | – | – | –
22 | CC(C)C(Br)C(=O)NC(N)=O (stereo not given) [BROMISOVALUM] | Not Active | Not Active | Not Active | Not Active | Not Active | Not Active | Not Active | Not Active | – | – | – | – | – | – | –
23 | CCCC1O[C@@H]2C[C@H]3[C@@H]4CCC5=CC(=O)C=C[C@]5(C)[C@H]4[C@@H](O)C[C@]3(C)[C@]2(C(=O)CO)O1 (stereo not given in full) [BUDESONIDE] | Not Active | Not Active | Not Active | Not Active | Not Active | Not Active | Not Active | Not Active | – | – | – | – | – | – | –
24 | CC(NC(C)(C)C)C(=O)c1cccc(Cl)c1 (stereo not given) [BUPROPION] | Not Active | Not Active | Not Active | Not Active | Not Active | Not Active | Not Active | Not Active | – | – | – | – | – | – | –
25 | CN(Cc1ccc(C(C)(C)C)cc1)Cc1cccc2ccccc12 [BUTENAFINE] | Not Active | Not Active | Not Active | Not Active | Not Active | Not Active | Not Active | Not Active | – | – | – | – | – | – | –
26 | C[C@H](CS)C(=O)N1CCC[C@H]1C(=O)O [CAPTOPRIL] | Not Active | Not Active | Not Active | Not Active | Not Active | Not Active | Not Active | Not Active | – | – | – | – | – | – | –
27 | Cc1ccc(-c2cc(C(F)(F)F)nn2-c2ccc(S(N)(=O)=O)cc2)cc1 [CELECOXIB] | Not Active | Not Active | Not Active | Not Active | Not Active | Not Active | Not Active | Not Active | – | – | – | – | – | – | –
28 | O=C(O)CCCc1ccc(N(CCCl)CCCl)cc1 [CHLORAMBUCIL] | Not Active | – | Not Active | Not Active | Not Active | Not Active | Not Active | Not Active | – | – | – | – | – | – | 9410 nM
29 | CN(C)CCCN1c2ccccc2Sc2ccc(Cl)cc21 [CHLORPROMAZINE] | – | Not Active | – | – | Not Active | – | Not Active | Not Active | 3210 nM | 2860 nM | – | – | – | – | –
30 | Clc1cccc(Cl)c1NC1=NCCN1 [CLONIDINE] | – | Not Active | Not Active | Not Active | Not Active | Not Active | Not Active | Not Active | – | – | – | – | – | – | –
31 | CCCCc1nc(Cl)c(CO)n1Cc1ccc(-c2ccccc2-c2nnn[nH]2)cc1 [LOSARTAN] | Not Active | Not Active | Not Active | Not Active | – | Not Active | Not Active | Not Active | – | – | – | – | – | – | –
32 | Cc1ccc(N(CC2=NCCN2)c2cccc(O)c2)cc1 [PHENTOLAMINE] | – | Not Active | Not Active | Not Active | Not Active | Not Active | Not Active | Not Active | – | – | – | – | – | – | –
